Results taken from PubChem BioAssay (NCI).
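Here, GI50 denotes the concentration required for 50% inhibition of growth. At the TGI there is no net growth.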

How the values were obtained:
Assay in all cases: DTP human tumour cell line panel, 384-well format
[1] = tested on: 786-0 renal
[2] = tested on: A498 renal
[3] = tested on: A549 NSCLC
[4] = tested on: ACHN renal
[5] = tested on: BT-549 breast
[6] = tested on: CAKI-1 renal
[7] = tested on: COLO 205 colon
[8] = tested on: DU-145 prostate
[9] = tested on: EKVX NSCLC
[10] = tested on: HCT-15 colon
[11] = tested on: HL-60(TB) leukemia
[12] = tested on: HOP-62 NSCLC
[13] = tested on: HOP-92 NSCLC
[14] = tested on: HS 578T breast
[15] = tested on: HT29 colon
[16] = tested on: IGROV1 ovarian
[17] = tested on: K-562 leukemia
[18] = tested on: KM12 colon
[19] = tested on: M14 melanoma
[20] = tested on: MALME-3M melanoma
[21] = tested on: MCF7 breast
[22] = tested on: MDA-MB-231 breast
[23] = tested on: MDA-MB-435 melanoma
[24] = tested on: MDA-MB-468 breast
[25] = tested on: MOLT-4 leukemia
[26] = tested on: NCI-H226 lung
[27] = tested on: NCI-H23 lung
[28] = tested on: NCI-H322M lung
[29] = tested on: NCI-H460 NSCLC
[30] = tested on: NCI-H522 lung
[31] = tested on: OVCAR-3 ovarian
[32] = tested on: OVCAR-4 ovarian
[33] = tested on: OVCAR-5 ovarian
[34] = tested on: OVCAR-8 ovarian
[35] = tested on: PC-3 prostate
[36] = tested on: RXF 393 renal
[37] = tested on: SF-268 CNS
[38] = tested on: SF-295 CNS
[39] = tested on: SF-539 CNS
[40] = tested on: SK-MEL-2 melanoma
[41] = tested on: SK-MEL-28 melanoma
[42] = tested on: SK-MEL-5 melanoma
[43] = tested on: SK-OV-3 ovarian
[44] = tested on: SN12C renal
[45] = tested on: SNB-19 CNS
[46] = tested on: SNB-75 CNS
[47] = tested on: SR leukemia
[48] = tested on: SW-620 colon
[49] = tested on: T-47D breast
[50] = tested on: TK-10 renal
[51] = tested on: U251 glioblastoma
[52] = tested on: UACC-257 melanoma
[53] = tested on: UACC-62 melanoma
[54] = tested on: UO-31 renal

SMILES: Cc1nc(Nc2n[nH]c3c2CN(C(=O)N[C@H](CN(C)C)c2ccccc2)C3(C)C)c2sccc2n1
- GI50 [1]: 58.1 nM
- TGI [1]: 1920 nM
- GI50 [2]: 30.1 nM
- TGI [2]: 2380 nM
- GI50 [3]: 39.6 nM
- TGI [3]: 61700 nM
- GI50 [4]: 35.6 nM
- TGI [4]: 3060 nM
- GI50 [5]: < 10 nM
- TGI [5]: 109 nM
- GI50 [6]: 52.2 nM
- TGI [6]: 2790 nM
- GI50 [7]: < 10 nM
- TGI [7]: 193 nM
- GI50 [8]: < 10 nM
- TGI [8]: 10200 nM
- GI50 [9]: 195 nM
- TGI [9]: 2140 nM
- GI50 [10]: 449 nM
- TGI [10]: 13600 nM
- GI50 [11]: < 10 nM
- TGI [11]: 117 nM
- GI50 [12]: < 10 nM
- TGI [12]: 113 nM
- GI50 [13]: 131 nM
- TGI [13]: 911 nM
- GI50 [14]: 93.6 nM
- TGI [14]: 763 nM
- GI50 [15]: 10.8 nM
- TGI [15]: 1750 nM
- GI50 [16]: < 10 nM
- TGI [16]: 449 nM
- GI50 [17]: < 10 nM
- TGI [17]: 3390 nM
- GI50 [18]: < 10 nM
- TGI [18]: 1060 nM
- GI50 [19]: 18.8 nM
- TGI [19]: 1500 nM
- GI50 [20]: < 10 nM
- TGI [20]: 1490 nM
- GI50 [21]: < 10 nM
- TGI [21]: 193 nM
- GI50 [22]: 102 nM
- TGI [22]: 1240 nM
- GI50 [23]: < 10 nM
- TGI [23]: 1670 nM
- GI50 [24]: < 10 nM
- TGI [24]: 431 nM
- GI50 [25]: < 10 nM
- TGI [25]: 122 nM
- GI50 [26]: 88.1 nM
- TGI [26]: 1590 nM
- GI50 [27]: < 10 nM
- TGI [27]: 214 nM
- GI50 [28]: 174 nM
- TGI [28]: 1580 nM
- GI50 [29]: < 10 nM
- TGI [29]: 1300 nM
- GI50 [30]: < 10 nM
- TGI [30]: 214 nM
- GI50 [31]: < 10 nM
- TGI [31]: 152 nM
- GI50 [32]: 40.6 nM
- TGI [32]: 3790 nM
- GI50 [33]: 61.3 nM
- TGI [33]: 11200 nM
- GI50 [34]: 33.3 nM
- TGI [34]: 1470 nM
- GI50 [35]: < 10 nM
- TGI [35]: 642 nM
- GI50 [36]: 144 nM
- TGI [36]: 960 nM
- GI50 [37]: 118 nM
- TGI [37]: 1350 nM
- GI50 [38]: 57.1 nM
- TGI [38]: 2290 nM
- GI50 [39]: < 10 nM
- TGI [39]: 1020 nM
- GI50 [40]: < 10 nM
- TGI [40]: 207 nM
- GI50 [41]: < 10 nM
- TGI [41]: 1260 nM
- GI50 [42]: < 10 nM
- TGI [42]: 827 nM
- GI50 [43]: 178 nM
- TGI [43]: 8090 nM
- GI50 [44]: < 10 nM
- TGI [44]: 1150 nM
- GI50 [45]: 382 nM
- TGI [45]: 12500 nM
- GI50 [46]: 274 nM
- TGI [46]: 1410 nM
- GI50 [47]: < 10 nM
- GI50 [48]: < 10 nM
- TGI [48]: 2210 nM
- GI50 [49]: 576 nM
- TGI [49]: 3840 nM
- GI50 [50]: 179 nM
- TGI [50]: 11000 nM
- GI50 [51]: < 10 nM
- TGI [51]: 2660 nM
- GI50 [52]: 19 nM
- TGI [52]: 632 nM
- GI50 [53]: < 10 nM
- TGI [53]: 19.4 nM
- GI50 [54]: 1610 nM
- TGI [54]: 14400 nM
